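Briefly, cells in 96-well plates were exposed to five compound concentrations for 48 h, and endpoints were estimated by linear interpolation. The concentration for 50% growth inhibition is given as GI50. TGI marks complete inhibition of growth.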
Assays:
Assay in all cases: NCI-60 cell line screen, 48 h
HOP-62 NSCLC = test system: HOP-62 NSCLC
SNB-19 CNS = test system: SNB-19 CNS
ACHN renal = test system: ACHN renal
A549 NSCLC = test system: A549 NSCLC
CAKI-1 renal = test system: CAKI-1 renal
HCT-116 colon = test system: HCT-116 colon
HT29 colon = test system: HT29 colon
COLO 205 colon = test system: COLO 205 colon
SK-OV-3 ovarian = test system: SK-OV-3 ovarian
DU-145 prostate = test system: DU-145 prostate

SMILES | GI50 (HOP-62 NSCLC) | TGI (HOP-62 NSCLC) | GI50 (SNB-19 CNS) | TGI (SNB-19 CNS) | GI50 (ACHN renal) | TGI (ACHN renal) | GI50 (A549 NSCLC) | TGI (A549 NSCLC) | GI50 (CAKI-1 renal) | TGI (CAKI-1 renal) | GI50 (HCT-116 colon) | TGI (HCT-116 colon) | GI50 (HT29 colon) | TGI (HT29 colon) | GI50 (COLO 205 colon) | TGI (COLO 205 colon) | GI50 (SK-OV-3 ovarian) | TGI (SK-OV-3 ovarian) | GI50 (DU-145 prostate) | TGI (DU-145 prostate)
CSC(=S)NCc1cn(C)c2ccccc12 | 49.4 µM | > 100 µM | 40.3 µM | > 100 µM | 21.9 µM | > 100 µM | 38.1 µM | > 100 µM | 20.8 µM | 61.3 µM | 50.5 µM | > 100 µM | 65.3 µM | > 100 µM | 17.5 µM | 65.9 µM | 30.2 µM | > 100 µM | 29.1 µM | > 100 µM
C=C(CN1CCc2ccccc2C1)c1ccc(CCCC(=O)Nc2ccccc2N)cc1 | 22.7 µM | 75.2 µM | 23.2 µM | > 100 µM | 25.9 µM | > 100 µM | 16.4 µM | 58.8 µM | 17.9 µM | 82.5 µM | 12.8 µM | 33.3 µM | 13.1 µM | 30.4 µM | 17 µM | 33.1 µM | 19.4 µM | 52.9 µM | 11.3 µM | 30.4 µM
COc1cc(C=NCC(=O)CSC(c2ccccc2)c2ccccc2)ccc1O | 14.6 µM | 27.9 µM | 14.5 µM | 28.7 µM | 12.5 µM | 31.8 µM | 10.7 µM | 26 µM | 16.6 µM | 43.2 µM | 8.69 µM | 21 µM | 15.3 µM | 28.6 µM | 10.6 µM | 22.4 µM | 3.58 µM | 17.2 µM | 12.2 µM | 37.8 µM
Cc1cc(C)c(-c2c(O)c(Br)c(-c3c(C)cc(C)c(Br)c3C)c(O)c2Br)c(C)c1Br | 2.81 µM | 10.1 µM | – | – | 3.14 µM | 13 µM | 2.73 µM | 11.7 µM | 1.66 µM | 5.99 µM | 2.13 µM | 5.53 µM | 2.34 µM | 10.2 µM | 1.73 µM | 3.54 µM | 4.77 µM | 23.8 µM | 4.21 µM | 16 µM
O=C(O)C(Cc1ccccc1)N1C(=O)/C(=C/C(Cl)=C/c2ccc([N+](=O)[O-])cc2)SC1=S (stereo unspecified) | 2.31 µM | 6.75 µM | – | – | 1.8 µM | 3.3 µM | 3.46 µM | > 100 µM | 2.28 µM | 5.09 µM | 2.01 µM | 5.47 µM | 2.84 µM | 8.47 µM | 2.45 µM | 6.21 µM | 4.13 µM | > 100 µM | 2.06 µM | 4.56 µM
CCNc1ccc2c(c1)C(=O)N(OS(C)(=O)=O)C2=O | – | > 100 µM | – | > 100 µM | – | > 100 µM | – | > 100 µM | – | > 100 µM | – | > 100 µM | – | > 100 µM | – | > 100 µM | – | > 100 µM | – | > 100 µM
O=C(O)CCN1C(=S)CSC1=S | – | > 100 µM | – | > 100 µM | – | > 100 µM | – | > 100 µM | – | > 100 µM | – | > 100 µM | – | > 100 µM | – | > 100 µM | – | > 100 µM | – | > 100 µM
CCOC(=O)c1sc(NC(=O)COc2ccc(/C=C3\CCc4cc(OC)ccc4C3=O)cc2)nc1C | 15.2 µM | 30.6 µM | 12.2 µM | 25.1 µM | 13.8 µM | 32.5 µM | 13.1 µM | 35.8 µM | 11.1 µM | 31.6 µM | 12.9 µM | 25.6 µM | 13.7 µM | 28.6 µM | 15.5 µM | 30 µM | 18.7 µM | 45.3 µM | 12.8 µM | 26.4 µM
C/C(=N\NC(=S)N1CCCC1)c1ccccn1 | < 0.01 µM | 13.8 µM | 0.112 µM | 14.7 µM | < 0.01 µM | 7.53 µM | < 0.01 µM | 10.5 µM | 0.0353 µM | 6.86 µM | < 0.01 µM | 12.1 µM | < 0.01 µM | 17.8 µM | < 0.01 µM | 10.8 µM | 0.0232 µM | 11.2 µM | 0.0428 µM | 14.8 µM
CN(C)CCN=c1nc2c(c(N)n1-c1ccccc1)c(=S)n(-c1ccccc1)c(=S)n2-c1ccccc1 | 2.73 µM | 10.8 µM | 3.86 µM | 16.7 µM | 2.89 µM | 9.71 µM | 4.86 µM | 19.8 µM | 2.16 µM | 14.1 µM | 2.24 µM | 9.38 µM | 1.48 µM | 3.82 µM | 1.52 µM | 3.32 µM | 6.96 µM | 20.9 µM | 4.91 µM | 17.7 µM
O=C(CC1(O)CCCCC1)OC1CCCC1 | – | > 100 µM | – | > 100 µM | – | > 100 µM | – | > 100 µM | – | > 100 µM | – | > 100 µM | – | > 100 µM | – | > 100 µM | – | > 100 µM | – | > 100 µM
CC(C)(C)OC(=O)NCCCCCCCCCCCCn1c2c(c3ccccc3c1=O)C(=O)c1ccccc1-2 | 32.7 µM | > 100 µM | 32 µM | 83.5 µM | 21.1 µM | 54.7 µM | > 100 µM | > 100 µM | 22 µM | 57.9 µM | > 100 µM | > 100 µM | > 100 µM | > 100 µM | > 100 µM | > 100 µM | 22.9 µM | 74.1 µM | 91.6 µM | > 100 µM
COc1ccc(C(=O)Cn2c(C(=O)c3ccc(Cl)cc3)nc(-c3ccccc3)c2-c2ccccc2)cc1 | > 100 µM | > 100 µM | 78.3 µM | > 100 µM | 34.3 µM | > 100 µM | 60 µM | > 100 µM | 31.2 µM | > 100 µM | > 100 µM | > 100 µM | > 100 µM | > 100 µM | > 100 µM | > 100 µM | 60.1 µM | > 100 µM | > 100 µM | > 100 µM

Reference: PubChem BioAssay (NCI)
